Where “and” joins values, the source holds several entries; their conditions need not be identical. Equal entries are not always repeated. Residues, ends and D or L forms follow the SMILES beside them.
Assays:
[1] = tested on: C. neoformans
[2] = Hemolysis assay; format: cell-based; conditions: for HC50 at 1 h: human, washed erythrocytes from EDTA-blood, pH 7.4
Experimental: For the hemolysis assays EDTA-blood was centrifuged at 800×g for 10 min, and the plasma and buffy coat were removed. The erythrocytes were washed three times and resuspended in 5% PBS, pH 7.4. The cells were then incubated with end-over-end rotation for 1 h at 37° C. in the presence of different concentrations of peptides (0, 3, 10, 30, 60 μm). 0.1% Triton X-100 (Sigma-Aldrich) served as positive control. The samples were then centrifuged at 800×g for 10 min.
The absorbance of hemoglobin release was measured at 540 nm and is expressed as % of Triton X-100-induced hemolysis. These values of triplicates were plotted with Graph Pad Prism 4 as a dose response curve and the CC50 was determined.

[3] = tested on: C. albicans ATCC 928; conditions: for MIC: ATCC 928, 18 h, pH 7.4
[4] = Cytotoxicity (resazurin) assay
Experimental: For the cytotoxicity (resazurin) assay, HEK293 cells were counted manually in a Neubauer haemocytometer and plated at a density of 4000 cells/well into each well of the 384-well plates containing the 25×(2 μl) concentrated compounds. The medium used was Dulbecco's modified eagle medium (DMEM) supplemented with 10% foetal bovine serum (FBS). Cells were incubated together with the compounds for 20 h at 37° C., 5% CO2. To measure cytotoxicity, 5 μl (equals 100 μM final) resazurin was added to each well after incubation, and incubated for further 3 h at 37° C. with 5% CO2.
After final incubation fluorescence intensity was measured as F ex 560/10 nm, em 590/10 nm (F560/590) using a Tecan M1000 Pro monochromator plate reader. […] The concentration dependent percentage cytotoxicity was fitted to a dose response function (using Pipeline Pilot) and CC50 values determined.

[5] = tested on: S. aureus ATCC 6538; experiment: CFU-assay, S. aureus-cidal activity; format: cell-based, Staphylococcus aureus
Experimental: Thus, within the present invention, the antimicrobial activity is generally measured in nutrient deficient 10 mM sodium phosphate buffer pH 5.5, containing 0.25% glucose, using the CFU-assay according to Steinberg and Lehrer, 1997 (supra), unless otherwise indicated. The CFU-assay allows determination of the minimal bactericidal concentration (MBC, e.g., MBC90 and MBC100; i.e. the concentration of compound required to achieve a specified reduction in bacterial cell number (microbial death or killing)).
Various peptides corresponding to repeat domains of hornerin (HR 1-11: HRNR 2606-2628; HR 1-17: HRNR 2656-2684 and HR 1-18: HRNR 2656-2677) were tested for P. aeruginosa ATCC 10145-cidal activity in 10 mM Na-phosphate buffer pH 5.5, containing 0.25% glucose by counting the numbers of colonies of surviving bacteria at serial, twofold dilutions from 300 μg/ml down to 19 ng/ml of each peptide (CFU-assay; Steinberg and Lehrer, 1997, Methods Mol. Biol. 78, 169-186).
Staphylococcus aureus is a major skin pathogen, which causes skin infections, in particular in atopic dermatitis. The sensitivity of S. aureus ATCC 6538 towards several CIDAMPs was assessed using the CFU-assay as above (see Example 1). HR 1-18, which lacks S. aureus.-bactericidal activity, is converted in a S. aureus-cidal peptide, when all His are replaced by Arg (HR 1-18 4H-4R; see Table 13 and FIG. 9). […] HR 1-18 4H-4R is rich in Ser and Arg and contains a single Leu residue. When this single Leu was replaced by Gly in S. aureus-cidal HR 1-18 4H-4R (forming HR 1-18 4H-4R/L-G), S. aureus-cidal activity was abolished at both pH 7.0 and pH 5.5 (see Table 13 and FIG. 9).

[6] = tested on: methicillin-resistant S. aureus strain (ATCC 43300); format: cell-based, Staphylococcus aureus; conditions: ATCC 43300, 18 h
Experimental: Furthermore, sensitivity of a methicillin-resistant S. aureus strain (ATCC 43300) was investigated for palmitoylated CIDAMPs in a microtiter plate screening model, with incubation in Mueller-Hinton medium at 37° C. for 18 h using resazurin as a marker for cell viability.
A sample of each culture was then diluted 40-fold in fresh broth and incubated at 37° C. for 1.5-3 h. […] All the plates were covered and incubated at 37° C. for 18 h.
Inhibition of bacterial growth was determined using resazurin as a marker for cell viability. Resazurin was added to each well, at 0.001% final concentration, and plates incubated at 37° C. for 2 h. Fluorescence intensity was measured, using F (top read), ex 560/10 nm, em 590/10 nm, using a Tecan M1000 Pro monochromator plate reader.

[7] = standard conditions at pH 7.4, activity at concentration <32 pg/ml

SMILES: N=C(N)NCCC[C@H](NC(=O)[C@H](CCCNC(=N)N)NC(=O)[C@H](CS)NC(=O)[C@H](CCCNC(=N)N)NC(=O)[C@H](Cc1c[nH]cn1)NC(=O)[C@H](CO)NC(=O)[C@H](CCCNC(=N)N)NC(=O)[C@H](CS)NC(=O)[C@H](CS)NC(=O)[C@H](CCCNC(=N)N)NC(=O)[C@H](Cc1c[nH]cn1)NC(=O)[C@H](Cc1c[nH]cn1)NC(=O)[C@@H](N)CO)C(=O)O [LCE3B56-68] (H-SHHRCCRSHRCRR-OH; N-terminus and C-terminus assumed)
- Antifungal activity, C. neoformans ATCC 208821 [1, 7]: A (A-active)
- CC50 [2]: > 300 µg/mL
- HC50 at 1 h [2]: > 113 µM
- Antifungal activity, C. albcans ATCC90028 [3, 7]: I (I-inactive)
- CC50 [4]: > 32 µg/mL and > 18.9 µM
- S. aureus MBC90 ([5]; pH 5.5): 0.044 µM
- S. aureus MBC100 ([5]; pH 5.5): >88.7 µM
- MBC90 ([5]; pH 5.5, 0.25% glucose): 0.075 µg/mL
- MBC100 ([5]; pH 5.5, 0.25% glucose): >150 µg/mL
- max.killing ([5]; pH 5.5, 0.25% glucose): max.killing: 99.3%
- MBC90 ([5]; pH 5.5, 0.25% glucose (text)): 0.044 µM

SMILES: N=C(N)NCCC[C@H](NC(=O)[C@H](CCCNC(=N)N)NC(=O)[C@H](CS)NC(=O)[C@H](CCCNC(=N)N)NC(=O)[C@H](Cc1c[nH]cn1)NC(=O)[C@H](CO)NC(=O)[C@H](CCCNC(=N)N)NC(=O)[C@H](CS)NC(=O)[C@H](CS)NC(=O)[C@H](CCCNC(=N)N)NC(=O)[C@H](Cc1c[nH]cn1)NC(=O)[C@H](Cc1c[nH]cn1)NC(=O)[C@@H](N)CO)C(=O)O [LCE3B5668] (H-SHHRCCRSHRCRR-OH; N-terminus and C-terminus assumed)
- MIC, S. aureus ATCC 43300 [6]: ≥32 µg/mL

SMILES: CCCCCCCCCCCCCCCC(=O)NCC(=O)N[C@@H](CCCNC(=N)N)C(=O)NCC(=O)N[C@@H](CCCNC(=N)N)C(=O)O [Pal-GR4, Pal-GRGR] (HELM PEPTIDE1{[CCCCCCCCCCCCCCCC(=O)[*:2]].G.R.G.R}$$$$V2.0)
- MIC, C. neoformans ATCC 208821 [1]: ≥8 µg/mL
- MIC, S. aureus ATCC 43300 [6]: ≥8 µg/mL
- HC50 [2]: 100 µg/mL
- MIC, C. albicans ATCC 90028 ([3]; ATCC 928): ≥8 µg/mL
- MIC [3]: 1 to 32 µg/mL
- CC50 [4]: > 32 µg/mL

SMILES: CCCCCCCCCCCCCCCC(=O)NCC(=O)N[C@@H](CCCNC(=N)N)C(=O)N[C@@H](CCCNC(=N)N)C(=O)NCC(=O)NCC(=O)N[C@@H](CCCNC(=N)N)C(=O)O [Pal-GR6, Pal-GRRGGR] (HELM PEPTIDE1{[CCCCCCCCCCCCCCCC(=O)[*:2]].G.R.R.G.G.R}$$$$V2.0)
- MIC, C. neoformans ATCC 208821 [1]: ≥16 µg/mL
- MIC, S. aureus ATCC 43300 [6]: ≥16 µg/mL
- HC50 [2]: > 300 µg/mL
- CC50 [4]: > 32 µg/mL

SMILES: CCCCCCCCCCCCCCCC(=O)NCC(=O)N[C@@H](CCCNC(=N)N)C(=O)N[C@@H](CCCNC(=N)N)C(=O)NCC(=O)NCC(=O)N[C@@H](CCCNC(=N)N)C(=O)NCC(=O)NCC(=O)N[C@@H](CCCNC(=N)N)C(=O)O [Pal-GR9] (HELM PEPTIDE1{[CCCCCCCCCCCCCCCC(=O)[*:2]].G.R.R.G.G.R.G.G.R}$$$$V2.0)
- MIC, S. aureus ATCC 43300 [6]: ≥8 µg/mL
- HC50 [2]: > 300 µg/mL
- HC50 at 1 h [2]: > 257 µM
- MIC [3]: 1 to 32 µg/mL
- CC50 [4]: > 32 µg/mL and > 27.4 µM

SMILES: CCCCCCCCCCCCCCCC(=O)N[C@@H](Cc1c[nH]cn1)C(=O)NCC(=O)N[C@@H](CO)C(=O)N[C@@H](CCCNC(=N)N)C(=O)N[C@@H](CO)C(=O)NCC(=O)N[C@@H](CCC(N)=O)C(=O)N[C@@H](CO)C(=O)N[C@@H](CO)C(=O)N[C@@H](CCCNC(=N)N)C(=O)NCC(=O)N[C@@H](CCC(=O)O)C(=O)N[C@@H](CCCNC(=N)N)C(=O)N[C@@H](Cc1c[nH]cn1)C(=O)NCC(=O)N[C@@H](CO)C(=O)N[C@@H](CO)C(=O)N[C@@H](CO)C(=O)NCC(=O)N[C@@H](CO)C(=O)N[C@@H](CO)C(=O)N[C@@H](CO)C(=O)N[C@@H](Cc1c[nH]cn1)C(=O)O [Pal-HR 1-11] (HELM PEPTIDE1{[CCCCCCCCCCCCCCCC(=O)[*:2]].H.G.S.R.S.G.Q.S.S.R.G.E.R.H.G.S.S.S.G.S.S.S.H}$$$$V2.0)
- MIC, S. aureus ATCC 43300 [6]: >32 µg/mL
- CC50 [4]: > 32 µg/mL

Source: patent US11479587B2, “Cationic intrinsically disordered antimicrobial peptides” (priority 2016, dated 2022)
